These molecules were tested against T1, mouse TRPM3α2 (mTRPM3) ion channel (Mus musculus, UniProt J9SQF3) (assay: TRPM3 ion channel driven Ca2+ uptake, Fluo-4 AM assay, stimulated with pregnenolone sulfate (50 μM)). Settings: TRPM3 overexpressing flip-in HEK293 cells, PS 50 μM, 2.4 mM Ca2+.
T1 construct: expressed in transfected cells; host or cells: flip-in HEK293 (Flp-In HEK293) overexpressing mTRPM3alpha2
Assay type: cell-based
Description: In order to monitor the inhibition of the mouse TRPM3α2 (mTRPM3) ion channel by the compounds of the invention, a cellular system making use of an mTRPM3alpha2 or hTRPM3 overexpressing cell line (flip-in HEK293) was used. The TRPM3 channel was stimulated/opened with Pregnenolone sulfate (PS) (50 μM) which results in Ca^2+ influx.
For mTRPM3, the intracellular Ca^2+ was measured with a Calcium responsive dye, Fluor-4 AM ester (Invitrogen). Cells were cultured until a confluence of 80-90%, washed with Versene (Invitrogen) and detached from the surface by a short incubation with 0.05% Trypsin (Invitrogen). The […] was stopped by the addition of complete cell culture medium (DMEM, glutamax, 10% FCS, NEAA, Pen-Strep). Cells were collected and resuspended in Krebs buffer without Calcium at RT.
Prior the cell seeding (±2000 cells/well into a black, 384 well plate (Greiner)) the diluted compound was added in the assay plate, together with the PS dissolved in Krebs buffer containing Calcium. […] Directly after cell addition the plates were read on an Envision fluorescence reader (Perkin Elmer) by an Excitation of 485 nm and emission at 535 nm.
Channel inhibition was calculated compared to a non-PS stimulated control versus a condition stimulated with PS (50 μM) with vehicle. The ability of the compounds of the invention to inhibit this activity was determined as: Percentage inhibition=[1−((RFU determined for sample with test compound present−RFU determined for sample with positive control inhibitor) divided by (RFU determined in the presence of vehicle−RFU determined for sample with positive control inhibitor))]*100.
The activities of the Example compounds cpd 001-091 tested are depicted in the table below. All tested compounds show an activity in the Fluo-4 AM assay. The activity ranges A, B and C refer to IC50 values in the Fluo-4 AM assay as follows: “A”: IC50<1 μM; “B”: 1 μM≤IC50≤20 μM and “C”: IC50>20 μM.

T1 sequence (J9SQF3 1-1709 isoform J9SQF3-12): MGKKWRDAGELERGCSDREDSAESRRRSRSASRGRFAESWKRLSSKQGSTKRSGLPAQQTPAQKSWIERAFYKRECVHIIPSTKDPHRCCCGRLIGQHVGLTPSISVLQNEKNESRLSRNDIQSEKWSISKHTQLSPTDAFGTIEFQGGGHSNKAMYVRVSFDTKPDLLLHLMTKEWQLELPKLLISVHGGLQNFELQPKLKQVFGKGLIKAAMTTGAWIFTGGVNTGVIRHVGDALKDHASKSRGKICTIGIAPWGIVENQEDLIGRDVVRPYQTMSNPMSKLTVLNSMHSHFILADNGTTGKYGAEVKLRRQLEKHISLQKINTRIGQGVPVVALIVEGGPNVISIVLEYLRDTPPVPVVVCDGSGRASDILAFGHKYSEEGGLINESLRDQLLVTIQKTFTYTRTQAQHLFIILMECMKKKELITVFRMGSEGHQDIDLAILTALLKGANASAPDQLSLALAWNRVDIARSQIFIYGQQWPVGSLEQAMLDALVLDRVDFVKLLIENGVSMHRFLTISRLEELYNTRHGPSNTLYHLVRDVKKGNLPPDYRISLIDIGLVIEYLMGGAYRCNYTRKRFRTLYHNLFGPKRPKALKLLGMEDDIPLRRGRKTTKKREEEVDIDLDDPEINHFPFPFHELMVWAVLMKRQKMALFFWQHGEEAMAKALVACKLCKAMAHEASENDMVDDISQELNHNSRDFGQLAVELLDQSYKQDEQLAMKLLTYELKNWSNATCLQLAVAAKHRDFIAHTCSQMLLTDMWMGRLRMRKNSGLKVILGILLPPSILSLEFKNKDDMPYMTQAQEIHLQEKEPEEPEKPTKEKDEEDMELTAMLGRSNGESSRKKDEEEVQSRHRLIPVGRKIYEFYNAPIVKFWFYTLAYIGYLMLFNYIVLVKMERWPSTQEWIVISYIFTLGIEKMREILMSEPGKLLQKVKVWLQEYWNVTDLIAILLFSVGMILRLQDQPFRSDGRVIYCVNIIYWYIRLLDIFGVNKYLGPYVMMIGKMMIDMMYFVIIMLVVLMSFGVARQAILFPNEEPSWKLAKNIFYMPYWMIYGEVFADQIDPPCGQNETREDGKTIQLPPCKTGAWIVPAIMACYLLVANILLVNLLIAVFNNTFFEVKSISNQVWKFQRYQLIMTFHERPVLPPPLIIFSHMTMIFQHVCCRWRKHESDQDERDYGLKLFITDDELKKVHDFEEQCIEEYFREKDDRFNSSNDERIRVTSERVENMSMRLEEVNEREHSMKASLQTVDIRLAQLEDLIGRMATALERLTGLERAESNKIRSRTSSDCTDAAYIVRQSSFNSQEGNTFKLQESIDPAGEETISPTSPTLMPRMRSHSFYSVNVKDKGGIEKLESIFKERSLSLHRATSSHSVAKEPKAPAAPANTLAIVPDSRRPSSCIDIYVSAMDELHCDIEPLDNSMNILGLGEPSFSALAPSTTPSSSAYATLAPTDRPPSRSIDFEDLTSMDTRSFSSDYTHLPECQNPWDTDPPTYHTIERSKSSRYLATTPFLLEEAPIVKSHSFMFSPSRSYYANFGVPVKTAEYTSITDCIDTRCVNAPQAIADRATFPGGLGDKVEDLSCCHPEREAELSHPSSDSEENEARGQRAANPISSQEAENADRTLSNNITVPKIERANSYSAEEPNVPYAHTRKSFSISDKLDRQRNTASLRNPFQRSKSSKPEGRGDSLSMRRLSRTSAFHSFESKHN

| Structure (SMILES) | IC50 [µM] |
| --- | --- |
| Cc1nn2ccc(OCc3ccccc3Cl)cc2c1C(=O)NC(C)(CO)C(N)=O (single isomer, unassigned) [Cpd 019 - En2, 2-({5-[(2-chlorophenyl)methoxy]-2-methylpyrazolo[1,5-a]pyridin-3-yl}formamido)-3-hydroxy-2-methylpropanamide] | 1 to 20 |
| CNC(=O)C(C)(CO)NC(=O)c1c(C)nn2ccc(OCc3ccccc3F)cc12 (single isomer, unassigned) [Cpd 011 - En1, 2-({5-[(2-fluorophenyl)methoxy]-2-methylpyrazolo[1,5-a]pyridin-3-yl}formamido)-3-hydroxy-N,2-dimethylpropanamide] | < 1 |
| Cc1nn2ccc(OCc3ccccc3F)cc2c1C(=O)NC1(CO)CCNC1=O (single isomer, unassigned) [Cpd 018 - En1, 5-[(2-fluorophenyl)methoxy]-N-[3-(hydroxymethyl)-2-oxopyrrolidin-3-yl]-2-methylpyrazolo[1,5-a]pyridine-3-carboxamide] | 1 to 20 |
| Cc1nn2ccc(OCc3ccccc3F)cc2c1C(=O)NCC(F)F [Cpd 006, N-(2,2-difluoroethyl)-5-[(2-fluorophenyl)methoxy]-2-methylpyrazolo[1,5-a]pyridine-3-carboxamide] | 1 to 20 |
| Cc1nn2ccc(OCc3ccccn3)cc2c1C(=O)NC(C)(CO)CC(F)F (single isomer, unassigned) [Cpd 038 - En2, N-(4,4-difluoro-1-hydroxy-2-methylbutan-2-yl)-2-methyl-5-[(pyridin-2-yl)methoxy]pyrazolo[1,5-a]pyridine-3-carboxamide] | < 1 |
| Cc1nn2ccc(OCc3ccccc3F)cc2c1C(=O)N(C)C(C)(CO)C(N)=O (single isomer, unassigned) [Cpd 024 - En1, 2-(1-{5-[(2-fluorophenyl)methoxy]-2-methylpyrazolo[1,5-a]pyridin-3-yl}-N-methylformamido)-3-hydroxy-2-methylpropanamide] | 1 to 20 |
| Cc1nn2ccc(OCc3ccccc3F)cc2c1C(=O)NC(C)(CO)CO [Cpd 002, N-(1,3-dihydroxy-2-methylpropan-2-yl)-5-[(2-fluorophenyl)methoxy]-2-methylpyrazolo[1,5-a]pyridine-3-carboxamide] | 1 to 20 |
| Cc1nn2ccc(OCc3ccccc3F)cc2c1C(=O)NC(C)(CO)C(N)=O (single isomer, unassigned) [Cpd 020 - En2, 2-({5-[(2-fluorophenyl)methoxy]-2-methylpyrazolo[1,5-a]pyridin-3-yl}formamido)-3-hydroxy-2-methylpropanamide] | 1 to 20 |
| Cc1nn2ccc(OCc3ccccc3F)cc2c1C(=O)N[C@@H](CO)C(N)=O [Cpd 003, (2S)-2-({5-[(2-fluorophenyl)methoxy]-2-methylpyrazolo[1,5-a]pyridin-3-yl}formamido)-3-hydroxypropanamide] | < 1 |

Now from value to molecule:

| IC50 [µM] | Structure (SMILES) |
| --- | --- |
| > 20 | Cc1nn2ccc(OCc3ccccn3)cc2c1C(=O)NCCO [Cpd 043, N-(2-hydroxyethyl)-2-methyl-5-[(pyridin-2-yl)methoxy]pyrazolo[1,5-a]pyridine-3-carboxamide] |
| > 20 | Cc1nn2ccc(OCc3ccccn3)cc2c1C(=O)NC(CO)CC(N)=O (stereo not drawn) [Cpd 076 - En2] |
| > 20 | Cc1nn2ccc(OCc3ccccn3)cc2c1C(=O)NCC(F)(F)c1ccccc1 [Cpd 046, N-(2,2-difluoro-2-phenylethyl)-2-methyl-5-[(pyridin-2-yl)methoxy]pyrazolo[1,5-a]pyridine-3-carboxamide] |
| > 20 | Cc1nn2ccc(OCc3ccccn3)cc2c1C(=O)NC(CO)C1CCOCC1 (stereo not drawn) [Cpd 077 - En2] |
| 1 to 20 | Cc1nn2ccc(OCc3ccccn3)cc2c1C(=O)NCc1c(F)cccc1C(F)(F)F [Cpd 047, N-{[2-fluoro-6-(trifluoromethyl)phenyl]methyl}-2-methyl-5-[(pyridin-2-yl)methoxy]pyrazolo[1,5-a]pyridine-3-carboxamide] |
| > 20 | Cc1nn2ccc(OCc3ccccn3)cc2c1C(=O)NCC(F)(F)F [Cpd 042, 2-methyl-5-[(pyridin-2-yl)methoxy]-N-(2,2,2-trifluoroethyl)pyrazolo[1,5-a]pyridine-3-carboxamide] |

Reference: patent publication US20250376468A1, “PYRAZOLO[1,5-a]PYRIDINE DERIVATIVES FOR TREATING TRPM3-MEDIATED DISORDERS” (Katholieke Universiteit Leuven, priority 2022, published 2025)
